Test results: US7470707B2, “Crystalline monohydrate clopidogrel naphthalenedisulfonate and process of preparation” (Hanmi Pharm. Co., Ltd, priority 2004, dated 2008)
Structures can show the parent of a compound that is named as a salt. Where two headings read alike, the source gives them in different places.

Legend:
[1] = Procedure: Effects on the bleeding time of the conventional clopidogrel hydrogen sulfate obtained in Comparative Example 1 and the inventive clopidogrel 2-naphthalenesulfonate and clopidogrel 1,5-naphthalenedisulfonate monohydrate obtained in Examples 1 and 2, respectively, were tested using rat in accordance with the standard method (see Dejana E & Villa S, Thromb. Haemostas. 48: 108-111, 1982). The bleeding time is an index representing the extent of thrombus formed by platelet aggregation and tests were performed using male and female rats.
Forty 11 to 12-weeks old male and female Sprague-Dawley rats (average weight: 270±25 g) were divided into four groups each consisting of five male rats and five female rats, and the male rats of the first group were each orally administered with 5.0 mg/kg of clopidogrel hydrogen sulfate (3.83 mg/kg as clopidogrel) and the female rats of the first group were each orally administered with 2.5 mg/kg (1.92 mg/kg as clopidogrel). For the second group, the male and female rats were orally each administered with 6.30 mg/kg and 3.15 mg/kg of clopidogrel 2-naphthalenesulfonate, respectively, and for the third group, the male and female rats were each orally administered with 5.65 mg/kg and 2.83 mg/kg of clopidogrel 1,5-naphthalenedisulfonate monohydrate, respectively. The drug was orally administered in the form of 1% DMSO solution in an amount in volume of 10 ml/kg body weight. As a comparison, only 1% DMSO solution was administered to the last group of rats.
After fixing an unanesthetized rat with an experimental holder, the tail of the rat was pierced at a position of 1.5 cm from the end of tail using a need of 26 G×½, 0.45×13 mm at a depth of 1 mm. The time of bleeding to cease was measured with absorbing the bleeding blood on a filter paper every 10 second.

[2] = test system: platelet aggregation induced by adenosine-diphosphate (ADP); conditions: ADP (5 μM), PRP of female Sprague-Dawley rats after oral dose corresponding to clopidogrel 15.3 mg/kg
Procedure: (§1) The pharmacological activities for preventing platelet aggregation of the clopidogrel hydrogen sulfate obtained in Comparative Example 1, and the inventive clopidogrel 2-naphthalenesulfonate and clopidogrel 1,5-naphthalenedisulfonate monohydrate obtained in Examples 1 and 2, respectively, were tested using rat blood in accordance with the standard method (see Born G.V.R & Cross, J. Physiol. 168: 178-195, 1963; 0. Takahashi, Food & Chemical Toxicology 38: 203-218, 2000). The platelet aggregation inhibition test was performed ex vivo, and the inhibitory activities of the acid addition salts against platelets aggregation induced by adenosine-diphosphate (ADP), collagen and thrombin, respectively, were measured.
(§2) Twenty 11 to 12-weeks old female Sprague-Dawley rats (average weight: 270±25 g) were divided into four groups each consisting of five rats, and each group of rats was orally administered with 20.0 mg/kg of clopidogrel hydrogen sulfate (15.3 mg/kg as clopidogrel), 25.2 mg/kg of clopidogrel 2-naphthalenesulfonate, and 22.6 mg/kg of clopidogrel 1,5-naphthalenedisulfonate monohydrate dissolved in 1% DMSO based on a volume of 10 ml/kg body weight. For the control group of rats, only 1% DMSO solution was administered.
(§3) Blood samples were taken using a syringe pre-charged with 3.8% citric acid solution from the abdominal artery of the animals under anesthesia, and the blood samples were centrifuged at 4° C. and 1,000 rpm for 10 minutes to separate platelet-rich plasma (PRP). The separated plasma was further centrifuged four times at 4° C. and 1,000 rpm to obtain PRP for test. A portion of PRP was further centrifuged at 4° C. and 3,000 rpm for 10 minutes to prepare precipitated platelet, and the precipitated platelet was washed with a buffer (138 mM NaCl, 2.7 mM KCl, 12 mM NaHCO3, 0.36 mM NaH2PO4, 5.5 mM glucose, 1 mM EDTA: pH 6.5). Then, the platelet was suspended in a buffer (138 mM NaCl, 2.7 mM KCl, 12 mM NaHCO3, 0.36 mM NaH2PO4, 0.49 mM MgCl2, 0.25% gelatin, 5.5 mM glucose: pH 7.4) such that the optical density (OD) value at 260 nm corresponded to a number of platelet which is about 1×10^8.
(§4) To induce platelet aggregation, ADP standard solution was added to the above PRP to determine the concentration until the final concentration of the ADP became 5 μM. Further, a collagen standard solution (final concentration 5 μg/ml) and thrombin standard solution (final concentration 0.1 U/ml) was added to the above washing platelet solution to induce platelet aggregation. Each of the samples was stirred at 37° C. and 900 rpm to measure the amount of platelet aggregation using a aggregometer (Chrono-log Platelet Aggregometer). The degrees of platelet aggregation and inhibition were calculated using formulae 1 and 2, and the results are shown in Table 8. Degree of aggregation (%)=[(measured aggregation height)/(aggregation height when 100% was aggregated)]×100 <Formula 1> Degree of inhibition (%)=[(aggregation height of control group)−(aggregation height of drug administration group)]/(aggregation height of control group)×100 <Formula 2>

[3] = test system: platelet aggregation induced by thrombin; conditions: Thrombin (0.1 U/ml), washed platelets of female Sprague-Dawley rats after oral dose corresponding to clopidogrel 15.3 mg/kg
Procedure: as §1, §2, §3, §4

[4] = test system: platelet aggregation induced by collagen; conditions: Collagen (5 μg/ml), washed platelets of female Sprague-Dawley rats after oral dose corresponding to clopidogrel 15.3 mg/kg
Procedure: as §1, §2, §3, §4

[5] = 60±2° C., 75±5% relative humidity
Procedure: The assay of the acid addition salt of clopidogrel was measured using HPLC condition A, the amount of hydrolyzed impurities of the acid addition salt of clopidogrel was measured using HPLC condition B, the optical purity of the acid addition salt of clopidogrel (i.e., the amount of the levorotatory isomers) was measured using the HPLC condition C, and the water content of the acid addition salt of clopidogrel was measured with a Karl-Fisher titrator.

[6] = Female Sprague-Dawley rats, oral dose corresponding to 1.92 mg/kg of clopidogrel
[7] = Male Sprague-Dawley rats, oral dose corresponding to 3.83 mg/kg of clopidogrel

Row | Water content ([5]; 0 day) | Water content ([5]; 7 days) | Water content ([5]; 14 days) | Water content ([5]; 21 days) | Water content ([5]; 28 days) | Water content ([5]; 35 days) | SMILES | Bleeding time [1, 6] | Bleeding time [1, 7] | Aggregation ratio [2] | Inhibition ratio [2] | Aggregation ratio [3] | Inhibition ratio [3] | Aggregation ratio [4] | Inhibition ratio [4] | also measured
1 | 0.1% | 0.1% | 0.1% | 0.4% | 2.0% | 4.8% | COC(=O)[C@H](c1ccccc1Cl)N1CCc2sccc2C1 [Hydrogen sulfate, Clopidogrel Hydrogen Sulfate, reference compound] | 127.5 ± 10.6 s | 135 ± 8.7 s | 5.00 ± 0.60% | 86.1% | 27.22 ± 1.52% | 67.1% | 12.19 ± 1.70% | 84.8% | –
2 | – | – | – | – | – | – | COC(=O)[C@H](c1ccccc1Cl)N1CCc2sccc2C1 [1,5-Naphthalenedisulfonate monohydrate, Clopidogrel 1,5-naphthalenedisulfonate Monohydrate] | – | – | – | – | – | – | – | – | Bleeding time ([1]; Female Sprague-Dawley rats, oral dose corresponding to 1.92 mg/kg of clopidogrel, Monohydrate): 152.5 ± 3.5 s; Bleeding time ([1]; Male Sprague-Dawley rats, oral dose corresponding to 3.83 mg/kg of clopidogrel, Monohydrate): 163 ± 5.8 s; Aggregation ratio ([2]; Monohydrate): 4.12 ± 0.14%; Inhibition ratio ([2]; Monohydrate): 88.5%; Aggregation ratio ([3]; Monohydrate): 23.61 ± 1.43%; Inhibition ratio ([3]; Monohydrate): 71.5%; Aggregation ratio ([4]; Monohydrate): 3.75 ± 0.40%; Inhibition ratio ([4]; Monohydrate): 95.3%; Water content ([5]; 0 day, Monohydrate): 1.8%; Water content ([5]; 7 days, Monohydrate): 1.8%; Water content ([5]; 14 days, Monohydrate): 1.9%; Water content ([5]; 21 days, Monohydrate): 1.9%; Water content ([5]; 28 days, Monohydrate): 1.8%; Water content ([5]; 35 days, Monohydrate): 1.9%
3 | 0.1% | 0.1% | 0.1% | 0.1% | 0.1% | 0.1% | COC(=O)[C@H](c1ccccc1Cl)N1CCc2sccc2C1 [2-Naphthalenesulfonate, Clopidogrel 2-naphthalenesulfonate] | 157 ± 10.6 s | 190 ± 5.0 s | 2.94 ± 0.21% | 91.8% | 15.00 ± 1.71% | 81.9% | 1.88 ± 0.25% | 97.9% | –
